Reference: US20220168389A1, “METHODS OF MAKING CHIMERIC ANTIGEN RECEPTOR-EXPRESSING CELLS” (priority 2019, published 2022)

Test system: freshly isolated, quiescent human T cells
Assay: Lentiviral transduction of freshly isolated quiescent (non-activated) T cells, flow cytometry
Type: cell-based
Description: Peripheral blood leukocytes from healthy donors were obtained from the Human Immunology Core. Informed consent was obtained from all participants prior to collection. All methods and experimental procedures were approved by the University of Pennsylvania Institutional Review Board. T cells were purified at the University's Human Immunology Core by negative selection using the RosetteSep T cell enrichment Cocktail. T cells were serum starved in RPMI media containing 10 mM HEPES, 2 mM L-glutamine 100 U/mL penicillin G and 100 μg/mL streptomycin for 2-6 hours and then resuspended at a concentration of 10^7 T cells/mL in X-VIVO 15 (Cambrex, Walkersville, Md.) supplemented with 5% normal human AB serum (Valley Biomedical, Winchester, Va.), 2 mM L-glutamine (Cambrex), 20 mM HEPES (Cambrex), IL7 and IL15 (10 ng/mL, Miltenyi Biotec), and deoxynucleosides (50 μM, Sigma). As the medium was switched to X-VIVO 15, T cells were simultaneously transduced with CD19-BBζ CAR or iRFP lentiviral supernatants for 24 hours.
1×10^6 cells were stained for cell surface markers to analyze T-cell differentiation status. […] Cells were washed with phosphate-buffered saline (PBS) and stained for viability using LIVE/DEAD Fixable Violet (Molecular Probes) for 15 minutes, washed once, and resuspended in fluorescence activated cell sorting (FACS) buffer containing PBS, 1% BSA, and 5 mM EDTA. […] Positively stained cells were differentiated from background using fluorescence-minus-one (FMO) controls. […]
For activated T cells, cells were resuspended at 10^6 T cells/mL in X-VIVO 15 (Cambrex, Walkersville, Md.) supplemented with 5% human AB serum (Valley Biomedical, Winchester, Va.), 2 mM L-glutamine (Cambrex), 20 mM HEPES (Cambrex), IL-7 and IL-15 (10 ng/mL, Miltenyi Biotec). […] Cell volume was also measured with a Multisizer III particle counter (Beckman-Coulter) every other day. […]
T cell differentiation was assessed using the following antibodies: anti-CCR7-FITC (BD Pharmingen); anti-CD45RO-PE, anti-CD8-H7APC (BD Biosciences); anti-CD4-BV510, anti-CD3-BV605, anti-CD14-Pacific Blue (PB), anti-CD19-PB (BioLegend). […]

Substance: deoxynucleosides [dNs]
- increase in transduction efficiency of quiescent T cells (50 μM dNs vs cells in medium containing IL-7 and IL-15, iRFP vector (FIG. 2B)): 3 fold
- increase in lentiviral transduction of non-activated T cells (50 μM dNs, normalized to complete media without dNs, iRFP vector (FIG. 6B)): ~2 fold
- transduction efficiency in quiescent T cells (serum starvation combined with high concentrations of dNs (FIG. 2B)): exceeding 50%
